According to US10213409B2, “Substituted benzofurans, benzothiophenes, benzoselenophenes and indoles and their use as tubulin polymerisation inhibitors” (Bionomics Limited, priority 2006, dated 2019):

Tests used:
Assay type in all cases: cell-based
[1] = system: Human umbilical vein endothelial cells (HUVECs), tumour type activated (Tum); assay: Proliferation Assay - Activated Endothelium (MTT); settings: for IC50: Homo sapiens, HUVEC, tumour type activated endothelial cells; for potency towards activated (tumour) versus quiescent (normal) endothelial cells: comparison of activated and quiescent HUVEC assays, FIGS. 1 and 2, Table 1
Method: Proliferation Assay—Activated Endothelium:
(§1) Cells were cultured overnight at 37° C. 5% CO2. Medium was subsequently replaced with fresh medium including the compound or negative control. Cells were cultured for a period of 48 hrs. An MTT assay was performed to measure changes in cell numbers. Briefly, 20 μl of MTT reagent was added to cells containing 100 μl of EGM2 and incubated at 37° C. for 2 hours.

MCF-7 = assay: Growth inhibition, Sulforhodamine B (SRB) or Systmex cell counting (CC) assay, MCF-7; settings: Homo sapiens, MCF7, concentration required to inhibit net cell growth by 50%, read-out: Cancer cell line IC50
[2] = system: Human umbilical vein endothelial cells (HUVECs), normal quiescent type (Norm); assay: Proliferation Assay - Quiescent Endothelium (MTT); settings: HUVEC
Method: Proliferation Assay—Quiescent Endothelium:
as §1, with “EBM2+0.5% FBS” for “EGM2”

MDA-MB-231 = assay: Growth inhibition, Sulforhodamine B (SRB) or Systmex cell counting (CC) assay, MDA-MB-231; settings: Homo sapiens; MDA-MB-231 (footnote b); concentration required to inhibit net cell growth by 50%; read-out: Cancer cell line IC50

Compound | IC50 [1] | IC50 (MCF-7) | IC50 [2] | IC50 (MDA-MB-231) | potency towards activated (tumour) versus quiescent (normal) endothelial cells [1]
COc1ccc(/C=C\c2cc(OC)c(OC)c(OC)c2)cc1O [Comparator A, reference compound] | 1 to 10 nM | 5 nM | 1 to 10 nM |  | 
COc1ccc(/C=C\c2cc(OC)c(OC)c(OC)c2)cc1OP(=O)(O)O [Comparator B, reference compound] | 1 to 10 nM | 5 nM | 1 to 10 nM |  | 
COc1ccc2c(C(=O)c3cc(OC)c(OC)c(OC)c3)c[nH]c2c1 [Comparator H, reference compound] | 1 to 10 nM |  | 1 to 10 nM |  | 
COc1cc(C(=O)c2coc3c(N)c(OC)ccc23)cc(OC)c1OC [Example 2, (7-Amino-6-methoxybenzofuran-3-yl)(3,4,5-trimethoxyphenyl)methanone] | 1 to 10 nM |  | 1 to 10 nM | 1 to 10 nM | 
COc1ccc2c(C(=O)c3cc(OC)c(OC)c(OC)c3)c(Br)oc2c1 [Example 3, 2-Bromo-3-(3,4,5-trimethoxybenzoyl)-6-methoxybenzofuran, reference compound] | 100 to 1000 nM | 500 nM | 100 to 1000 nM |  | 
COc1ccc2c(C(=O)c3cc(OC)c(OC)c(OC)c3)coc2c1 [Example 5, 3-(3,4,5-Trimethoxybenzoyl)-6-methoxy-benzofuran, reference compound] | 10 to 100 nM | 55 nM | 10 to 100 nM |  | 
COc1cc(C(=O)c2coc3c(O)c(OC)ccc23)cc(OC)c1OC [Example 6, 3-(3,4,5-Trimethoxybenzoyl)-6-methoxy-7-hydroxybenzofuran] | 10 to 100 nM | 45 nM | 10 to 100 nM |  | 
C#Cc1oc2c(O)c(OC)ccc2c1C(=O)c1cc(OC)c(OC)c(OC)c1 [Example 8, 2-Ethynyl-7-hydroxy-6-methoxy-3-(3,4,5-trimethoxybenzoyl)-benzofuran] | 1 to 10 nM | 3.3 nM | 1 to 10 nM |  | 
COc1cc(C(=O)c2c(SC)oc3c(O)c(OC)ccc23)cc(OC)c1OC [Example 9, 7-Hydroxy-6-methoxy-2-methylsulfanyl-3-(3,4,5-trimethoxybenzoyl)benzofuran] | 0.1 to 1 nM | 1.2 nM | 1 to 10 nM |  | higher potency towards tumour endothelial cells (activated) over normal endothelial cells (quiescent)
COc1cc(C(=O)c2c(NN)oc3c(O)c(OC)ccc23)cc(OC)c1OC [Example 10, 2-Hydrazino-7-hydroxy-6-methoxy-3-(3,4,5-trimethoxybenzoyl)-benzofuran] | 1 to 10 nM | 35 nM | 10 to 100 nM |  | 
CCC/C=C/c1oc2c(O)c(OC)ccc2c1C(=O)c1cc(OC)c(OC)c(OC)c1 [Example 13] | 1 to 10 nM | 8 nM | 1 to 10 nM |  | 
COC(=O)/C=C/c1oc2c(O)c(OC)ccc2c1C(=O)c1cc(OC)c(OC)c(OC)c1 [Example 14, (E)-3-[7-Hydroxy-6-methoxy-3-(3,4,5-trimethoxy-benzoyl)-benzofuran-2-yl]-acrylic acid methyl ester] | 0.1 to 1 nM | 2 nM | 1 to 10 nM |  | 
COc1cc(C(=O)c2c(/C=C/C(N)=O)oc3c(O)c(OC)ccc23)cc(OC)c1OC [Example 15, (E)-3-[7-Hydroxy-6-methoxy-3-(3,4,5-trimethoxy-benzoyl)benzofuran-2-yl]-acrylamide] | 1 to 10 nM |  | 1 to 10 nM | 1 to 10 nM | higher potency towards tumour endothelial cells (activated) over normal endothelial cells (quiescent)
CNc1oc2c(O)c(OC)ccc2c1C(=O)c1cc(OC)c(OC)c(OC)c1 [Example 18, 2-(N-Methylamino)-7-hydroxy-3-(3,4,5-trimethoxybenzoyl)-6-methoxy-benzofuran] | 1 to 10 nM | 3.5 nM | 0.1 to 1 nM |  | 
COc1cc(C(=O)c2c(N)oc3c(O)c(OC)ccc23)cc(OC)c1OC [Example 19, (2-Amino-7-hydroxy-6-methoxy-benzofuran-3-yl)-(3,4,5-trimethoxyphenyl)-methanone] | 1 to 10 nM |  | 1 to 10 nM |  | 
COc1cc(C(=O)c2c(NCC(=O)O)oc3c(O)c(OC)ccc23)cc(OC)c1OC [Example 23, [7-hydroxy-6-methoxy-3(3,4,5-trimethoxy-benzoyl)-benzofuran-2-ylamino]acetic acid] | 100 to 1000 nM | 260 nM | 100 to 1000 nM |  | 
COc1cc(C(=O)c2c(NCCNC(=O)OC(C)(C)C)oc3c(O)c(OC)ccc23)cc(OC)c1OC [Example 26, tert-Butyl-2-(7-hydroxy-6-methoxy-3-(3,4,5-trimethoxybenzoyl)benzofuran-2-ylamino)ethyl carbamate] | 1 to 10 nM |  | 1 to 10 nM |  | 

Compound | IC50 [1] | IC50 (MCF-7) | IC50 [2] | IC50 (MDA-MB-231) | potency towards activated (tumour) versus quiescent (normal) endothelial cells [1]
COc1cc(C(=O)c2c(NCCNC(=N)N)oc3c(O)c(OC)ccc23)cc(OC)c1OC [Example 28, 1-[2-(7-hydroxy-6-methoxy-3-(3,4,5-trimethoxybenzoyl)benzofuran-2-ylamino)ethyl]guanidine] | 100 to 1000 nM |  | 10 to 100 nM |  | 
COc1ccc2c(C(=O)c3cc(OC)c(OC)c(OC)c3)c(O)oc2c1 [Example 30, (2-Hydroxy-6-methoxybenzofuran-3-yl)(3,4,5-trimethoxyphenyl)methanone, reference compound] | 100 to 1000 nM | 575 nM | 100 to 1000 nM |  | 
COc1cc(C(=O)c2c(CN(C)C)oc3c(O)c(OC)ccc23)cc(OC)c1OC [Example 34, 2-Dimethylaminomethylene-3-(3,4,5-tri-methoxy-benzoyl)-6-methoxy-7-hydroxy-benzo[b]furan] | 1 to 10 nM |  | 1 to 10 nM |  | 
COc1cc(C(=O)c2c(Cn3ccnc3)oc3c(O)c(OC)ccc23)cc(OC)c1OC [Example 35, 2-(1H-Imidazol-1-yl)methyl-3-(3,4,5-trimethoxybenzoyl)-6-methoxy-7-hydroxy-benzo[b]furan] | 1 to 10 nM |  | 1 to 10 nM |  | 
COc1cc(C(=O)c2c(Cn3nnc(N)n3)oc3c(O)c(OC)ccc23)cc(OC)c1OC [Example 36, 2-(5-amino-2H-tetrazol-2-yl)-methyl-3-(3,4,5-tri-methoxy-benzoyl)-6-methoxy-7-hydroxy-benzo[b]furan] | 1 to 10 nM |  | 1 to 10 nM |  | 
COc1cc(C(=O)c2c(CN3CCN(C)CC3)oc3c(O)c(OC)ccc23)cc(OC)c1OC [Example 37, 2-(4-Methylpiperazin-1-yl)methyl-3-(3,4,5-tri-methoxy-benzoyl)-6-methoxy-7-hydroxy-benzo[b]furan] | 10 to 100 nM |  | 10 to 100 nM |  | 
COc1cc(C(=O)c2c(C)[nH]c3c(O)c(OC)ccc23)cc(OC)c1OC [Example 39, 7-Hydroxy-6-methoxy-2-methyl-3-(3,4,5-trimethoxybenzoyl)-1H-indole] | 0.01 to 0.1 nM |  | 0.1 to 1 nM |  | 
COc1cc(C(=O)c2c(C)[nH]c3c(O)c(OC)ccc23)cc(OC)c1O [Example 40, 3-(3,5-Dimethoxy-4-hydroxybenzoyl)-7-hydroxy-6-methoxy-2-methyl-1H-indole] | 1 to 10 nM |  | 10 to 100 nM |  | 
COc1cc(C(=O)c2c(C)sc3c(O)c(OC)ccc23)cc(OC)c1OC [Example 42, 7-Hydroxy-6-methoxy-2-methyl-3-(3,4,5-trimethoxybenzoyl)benzo[b]thiophene] | 0.1 to 1 nM |  | 1 to 10 nM |  | 
COC(=O)CN(C)Cc1oc2c(O)c(OC)ccc2c1C(=O)c1cc(OC)c(OC)c(OC)c1 [Example 43, 2-[(N-Methyl-2-amino-aceticacid methyl ester)-methenyl)-3-(3,4,5-trimethoxybenzoyl)-6-methoxy-7-hydroxy-benzo[b]furan] | 1 to 10 nM |  | 1 to 10 nM |  | 
COc1cc(C(=O)c2c(CN(C)CC(=O)O)oc3c(O)c(OC)ccc23)cc(OC)c1OC [Example 44, 2-[(N-Methyl-2-amino-aceticacid)-methenyl)-3-(3,4,5-trimethoxybenzoyl)-6-methoxy-7-hydroxy-benzo[b]furan] | 10 to 100 nM |  | 10 to 100 nM |  | 
COc1cc(C(=O)c2c(NCCS(N)(=O)=O)oc3c(O)c(OC)ccc23)cc(OC)c1OC [Example 45, 2-N-(Aminoethanesulphonamide)-3-(3,4,5-trimethoxybenzoyl)-6-methoxy-7-hydroxy-benzo[b]furan] | 1 to 10 nM |  | 1 to 10 nM |  | 
COc1cc(C(=O)c2c(C)oc3c(O)c(OC)ccc23)cc(OC)c1O [Example 46, 3-(4-Hydroxy-3,5-di-methoxy-benzoyl)-7-hydroxy-6-methoxy-2-Methyl-benzo[b]furan] | 10 to 100 nM |  | 100 to 1000 nM |  | 
COc1ccc2c(C(=O)c3cc(OC)c(OC)c(OC)c3)c(C)sc2c1 [Example 51, 6-Methoxy-2-methyl-3-(3,4,5-trimethoxybenzoyl)benzo[b]thiophene, reference compound] | 1 to 10 nM |  | 1 to 10 nM |  | 
COc1cc(OC)cc(C(=O)c2coc3c(O)c(OC)ccc23)c1 [Example 52, 3-(3,5-Dimethoxybenzoyl)-7-hydroxy-6-methoxybenzo[b]furan] | 100 to 1000 nM | 35 nM | 100 to 1000 nM |  | 
COc1ccc2c(C(=O)c3c(F)c(F)c(F)c(F)c3F)coc2c1O [Example 53, 3-(Pentafluorobenzoyl)-6-methoxy-7-hydroxybenzo[b]furan] | > 1000 nM | 800 nM | > 1000 nM |  | 
